Assay results taken from patent US20030003050A1 (priority 2001, published 2003).

Experiments:
B6μ, Heμ and CXμ mice [1] = conditions: mouse, in vivo, ip, 10 mg/kg
B6μ, Heμ and CXμ mice [2] = assay: hot-plate test; format: in vivo, mouse; conditions: CXμ mice vs B6μ and Heμ littermates; 10 mg/kg intraperitoneal; 20 minutes after injection; plate 52.0°C; p<0.05

Q: What does the source list for `CN1CC[C@]23c4c5ccc(O)c4O[C@H]2[C@@H](O)C=C[C@H]3[C@H]1C5.Cl` [morphine, Morphine hydrochloride]?
A: latency of response to heat stimulus (drug-induced analgesia), tail-flick test (B6μ, Heμ and CXμ mice [1]): significantly shorter latency than the littermates; latency of response to heat stimulus (first jumping; drug-induced analgesia), hot-plate test (B6μ, Heμ and CXμ mice [2]): significantly shorter latency than the littermates
